The subject of data set [1] is L. ruminis ATCC27780. Briefly: MIC against anaerobic bacteria. Type of data set: cell-based.
Data set [2] has as its system P. vulgaris CN-329. Briefly: MIC against aerobic bacteria. The settings on record: Proteus vulgaris, CN329.
Data set [3] relates to P. anaerobius B-38. Nature of the data set: MIC against anaerobic bacteria. Type of data set: cell-based. The settings on record: Peptostreptococcus anaerobius, B38.
Data set [4] relates to P. asaccharolyticus ATCC14963. Briefly: MIC against anaerobic bacteria. Type of data set: cell-based. The following applies: Peptoniphilus asaccharolyticus; P. asaccharolyticus ATCC14963; read-out: MIC.
For data set [5], the system named is S. pyogenes C-203. Nature of the data set: MIC against aerobic bacteria. The settings on record: Streptococcus pyogenes, C203.
Data set [6] relates to L. plantarum JCM1100. Briefly: MIC against anaerobic bacteria. Type of data set: cell-based. The following applies: Lactiplantibacillus plantarum; L. plantarum JCM1100; read-out: MIC.
Data set [7] concerns F. varium ATCC8501. Briefly: MIC against anaerobic bacteria. Type of data set: cell-based. The settings on record: Fusobacterium varium.
Data set [8] relates to B. bifidum JCM1122. Nature of the data set: MIC against anaerobic bacteria. Type of data set: cell-based. The following applies: Bifidobacterium bifidum; B. bifidum JCM1122; read-out: MIC.
Data set [9] has as its system B. fragilis GM7000. Briefly: MIC against anaerobic bacteria. Type of data set: cell-based. The settings on record: Bacteroides fragilis; B. fragilis GM7000; read-out: MIC.
Data set [10] relates to P. aeruginosa A25619. Briefly: MIC against aerobic bacteria. The settings on record: Pseudomonas aeruginosa.
Data set [11] has as its system C. perfringens ATCC13124. Nature of the data set: microbe, parasite or virus in culture. Type of data set: cell-based. The settings on record: Clostridium perfringens.
The test system of data set [12] is B. fragilis ATCC25285. Nature of the data set: MIC against anaerobic bacteria. Type of data set: cell-based. The settings on record: Bacteroides fragilis, ATCC25285.
For data set [13], the system named is E. limosum ATCC8486. Nature of the data set: MIC against anaerobic bacteria. Type of data set: cell-based. The settings on record: Eubacterium limosum, ATCC8486.
Data set [14] concerns B. thetaiotaomicron WAL3304. Nature of the data set: MIC against anaerobic bacteria. Type of data set: cell-based. The following applies: Bacteroides thetaiotaomicron; B. thetaiotaomicron WAL3304; read-out: MIC.
Data set [15] relates to anaerobic bacteria. Nature of the data set: antibacterial activity against anaerobic bacteria (summary). Type of data set: cell-based. The following applies: in words.
The subject of data set [16] is B. vulgatus ATCC29327. Briefly: MIC against anaerobic bacteria. Type of data set: cell-based. The following applies: Phocaeicola vulgatus; B. vulgatus ATCC29327; read-out: MIC.
In data set [17] the test system is S. aureus FDA JC-1. Nature of the data set: MIC against aerobic bacteria. The following applies: Staphylococcus aureus, FDAJC1.
The subject of data set [18] is E. lentum II-1. Briefly: MIC against anaerobic bacteria. Type of data set: cell-based. The following applies: Eggerthella lenta, II1.
Data set [19] has as its system C. perfringens SAKAI. Briefly: microbe, parasite or virus in culture. The settings on record: Clostridium perfringens. Type of data set: cell-based.
The subject of data set [20] is S. aureus SR14(R). Briefly: MIC against aerobic bacteria. The settings on record: Staphylococcus aureus.
Data set [21] has as its system C. difficile ATCC17857. Briefly: MIC against anaerobic bacteria. Type of data set: cell-based. The settings on record: Clostridioides difficile.
Data set [22] has as its system S. pneumoniae TYPE 1. Briefly: MIC against aerobic bacteria. The following applies: Streptococcus pneumoniae, TYPE1.
Data set [23] relates to P. acens ATCC11827. Briefly: MIC against anaerobic bacteria. Type of data set: cell-based.
For data set [24], the system named is B. distasonis JU-11-1. Briefly: MIC against anaerobic bacteria. Type of data set: cell-based. The settings on record: Parabacteroides distasonis, JU111; B. distasonis JU-11-1; read-out: MIC.
For data set [25], the system named is E. aerofaciens ATCC25986. Briefly: MIC against anaerobic bacteria. Type of data set: cell-based. The following applies: Collinsella aerofaciens; E. aerofaciens ATCC25986; read-out: MIC.
The test system of data set [26] is B. longum ATCC15707. Briefly: MIC against anaerobic bacteria. Type of data set: cell-based. The settings on record: Bifidobacterium longum, ATCC15707.
Data set [27] has as its system S. constellatus ATCC27823. Nature of the data set: MIC against anaerobic bacteria. Type of data set: cell-based. The settings on record: Streptococcus constellatus.
Data set [28] relates to V. parvula ATCC10790. Nature of the data set: MIC against anaerobic bacteria. Type of data set: cell-based. The settings on record: Veillonella parvula.
In data set [29] the test system is P. micros VPI5464-1. Nature of the data set: MIC against anaerobic bacteria. The following applies: Parvimonas micra, VPI54641. Type of data set: cell-based.
The subject of data set [30] is K. pneumoniae SR1. Nature of the data set: MIC against aerobic bacteria. The following applies: Klebsiella pneumoniae.
The subject of data set [31] is B. ovatus 2505. Nature of the data set: MIC against anaerobic bacteria. Type of data set: cell-based. The following applies: Bacteroides ovatus; B. ovatus 2505; read-out: MIC.
Data set [32] has as its system F. mortiferum ATCC9817. Nature of the data set: MIC against anaerobic bacteria. Type of data set: cell-based. The following applies: Fusobacterium mortiferum; F. mortiferum ATCC9817; read-out: MIC.
Data set [33] relates to E. coli NIHJ JC-2. Nature of the data set: MIC against aerobic bacteria. The following applies: Escherichia coli, NIHJJC2.
The test system of data set [34] is F. nucleatum ATCC25586. Nature of the data set: MIC against anaerobic bacteria. Type of data set: cell-based. The settings on record: Fusobacterium nucleatum.
A short description of data set [35]: filter paper electrophoresis and bioautography (acidic property). Type of data set: physicochemical. The source says: Other physicochemical properties of PB-6042s in the form of sodium salt are listed below.
Data set [36] concerns P. prevotii ATCC9321. Nature of the data set: MIC against anaerobic bacteria. Type of data set: cell-based. The settings on record: Anaerococcus prevotii; P. prevotii ATCC9321; read-out: MIC.
Data set [37] concerns B. adolescentis JCM1250. Briefly: MIC against anaerobic bacteria. Type of data set: cell-based. The following applies: Bifidobacterium adolescentis; B. adolescentis JCM1250; read-out: MIC.
The subject of data set [38] is B. melaninogenicus GAI0413. Nature of the data set: MIC against anaerobic bacteria. Type of data set: cell-based. The settings on record: B. melaninogenicus GAI0413; read-out: MIC.
Data set [39] can be described thus: antibacterial activity and acidic property of reduced PB-6042A: antibacterial activity. Type of data set: cell-based. The following applies: after H2/PtO2 reduction.
A short description of data set [40]: acidic property of reduced PB-6042A. The settings on record: after H2/PtO2 reduction.

Data on 2 compounds can be found in US5045458A, “Antibiotics PB-6042S” (Shionogi & Co., Ltd., priority 1988, dated 1991).

Values after ≈ are worked out from the molar mass of the structure shown.

Regarding `C=C1OC(=O)C(C(=O)CCCC/C=C\CCCCCCC)=C1O` [PB-6042D], the MIC in [1] is 3.13 µg/mL (≈ 9.77 µM); in data set [2] it was over 100 µg/mL; in data set [3], 1.56 µg/mL (≈ 4.87 µM); in data set [4] it was 6.25 µg/mL (≈ 19.5 µM); in [5], 12.5 µg/mL (≈ 39 µM); in [6], 6.25 µg/mL (≈ 19.5 µM). The MIC is over 100 µg/mL in data set [7]; 6.25 µg/mL (≈ 19.5 µM) in data set [8]; 6.25 µg/mL (≈ 19.5 µM) in data set [9]; over 100 µg/mL in data set [10]; 3.13 µg/mL (≈ 9.77 µM) in data set [11]; 3.13 µg/mL (≈ 9.77 µM) in data set [12]. Further, the MIC in data set [13] is 3.13 µg/mL (≈ 9.77 µM); in data set [14] it was 6.25 µg/mL (≈ 19.5 µM); in data set [16], 12.5 µg/mL (≈ 39 µM); in data set [17], over 100 µg/mL; in [18], 3.13 µg/mL (≈ 9.77 µM); in data set [19], 3.13 µg/mL (≈ 9.77 µM). Also, the MIC in data set [20] stood at 12.5 µg/mL (≈ 39 µM); in [21], 1.56 µg/mL (≈ 4.87 µM); in [22] it was 12.5 µg/mL (≈ 39 µM); in [23], 1.56 µg/mL (≈ 4.87 µM); in [24], 12.5 µg/mL (≈ 39 µM); in data set [25], 6.25 µg/mL (≈ 19.5 µM). For the same compound, the MIC in data set [26] is 3.13 µg/mL (≈ 9.77 µM); in data set [27], 1.56 µg/mL (≈ 4.87 µM); in data set [28], over 100 µg/mL; in [29], 0.78 µg/mL (≈ 2.43 µM); in [30] it was over 100 µg/mL; in [31], 12.5 µg/mL (≈ 39 µM). Also, the MIC in [32] is over 100 µg/mL; in data set [33] it was over 100 µg/mL; in [34], 25 µg/mL (≈ 78 µM); in [36] it was 6.25 µg/mL (≈ 19.5 µM); in data set [37] it was 6.25 µg/mL (≈ 19.5 µM); in data set [38] it was 12.5 µg/mL (≈ 39 µM). Further, the “growth inhibition of anaerobic bacteria” value in data set [15] was “inhibit the growth of anaerobic bacteria, selectively”. Besides, in data set [35], the acidic property entry is listed as “acidic substances”.

As for `CCCCCCCCCC(=O)C1=C(O)C(C)OC1=O` (stereo not shown) [reduced product], in data set [39], the “antibacterial activity of reduced product” value is recorded as “maintained antibacterial activity”. Besides, the “acidic property of reduced product” value in data set [40] is “maintained antibacterial activity and acidic property”.
